# Assay results published in a melting point compilation (Tetko et al.; mined from patent text by program, amines drawn as free bases though some values may be those of a salt).
row,melting point,SMILES
1,153 to 155 °C,COc1ccc(CCN2CCC(C(O)(c3cccs3)c3cccs3)CC2)cc1
2,197 °C,Nc1ccc2c(c1)N1CCCN=C1S2
3,82 to 84 °C,COc1c(C)c(N2CCN(c3ccc(C)cc3)CC2)c(C)c2c1OC(C)C2 (stereo not drawn)
4,231 to 234 °C,O=C(O)c1ccc(C(c2ccc(C(=O)O)c(C(=O)O)c2)(C(F)(F)F)C(F)(F)F)cc1C(=O)O
5,200 to 201 °C,C=CCNc1nc(NC(=O)NC(C)(C)C)c2cc([N+](=O)[O-])ccc2n1
6,140 to 141 °C,COc1ccc(Cl)cc1C(=O)NCc1ccc(CC(=O)O)cc1
7,135 to 138 °C,Cc1ncsc1C(O)c1cccc(N(C)C)c1 (stereo not drawn)
8,232 to 234 °C,Nc1ccc(Sc2ccc3c(c2)OCC(=O)N3)cc1
9,148 °C,COC(=O)c1scc(-c2ccccc2OC)c1-n1cccc1
10,91 to 93 °C,O=C(C1CCC1)N1CCC2(CC1)Cc1ccccc1O2
11,289 to 290 °C,Cc1ccc(-c2csc(-c3ccc(C(=O)O)cc3)n2)cc1
12,193 to 195 °C,COP(=O)(CCC(C)(C)c1cc(O)c(C(C)(C)C)cc1O)OC
13,169 to 171 °C,CC(=O)N1c2ccccc2-n2cnc(-c3nc(C4CC4)no3)c2C1(C)C
14,261 to 263 °C,O=C1N=C(c2ccccc2OCC(F)(F)F)N=C2N=CN=C12
15,181 to 183 °C,CC(=O)Nc1ccc(S(=O)(=O)N2CCN(c3c(F)cc4c(=O)c(C(=O)O)cn(CC(C)C)c4c3F)CC2)cc1
16,137 to 139 °C,CC(O)c1cccc(S(N)(=O)=O)c1 (stereo not drawn)
17,97 to 98 °C,CCOC(=O)c1c(C(F)(F)F)nc(C(F)(F)Cl)c(C(=O)OC)c1NN(C)C
18,199 to 201 °C,CCC(O)(CC)c1cccc2[nH]c(=O)n(C)c12
19,213 to 214 °C,O=C1Nc2ccccc2C2=NC(CBr)CN12 (stereo not drawn)
20,161 to 162 °C,Cc1ccc(S(=O)(=O)CNCC(CS(=O)(=O)c2ccccc2Oc2ccc(OC(F)(F)F)cc2)N(O)C=O)cc1 (stereo not drawn)
21,218 to 222 °C,CCc1nc2c(=O)[nH]c(=O)n(C)c2nc1CC
22,261 to 263 °C,CN1C(C(=O)Nc2ccccc2)=C(O)c2sc3ccccc3c2S1(=O)=O
23,103 to 105 °C,COc1cccc(-c2ccccc2CNC(=O)C(C)C)c1
24,140 to 141 °C,COc1c(C)c(NC(=O)CC(C)(C)C)c2c(c1C)C(c1ccc(C(C)C)cc1)C(C)(C)O2 (stereo not drawn)
25,200 °C,O=C(O)c1ncncc1Br

row,melting point,SMILES
1,78 to 80 °C,CCN(c1ccccc1C)S(=O)(=O)c1cc([N+](=O)[O-])ccc1C
2,79 to 80 °C,Nc1cc(CCC(=O)NC23CC4CC(CC(C4)C2)C3)ccc1O
3,112 to 115 °C,COc1nccc2c1ccn2-c1ccc(C(F)(F)F)cc1Cl
4,126 to 130 °C,C=CCOc1nc(N(CC=C)CC=C)nc(N2CCc3ccccc3CC2)c1C#N
5,177 to 178 °C,O=C1Nc2ccc(-c3cccc(Cl)c3)cc2C(c2ccccc2)O1 (stereo not drawn)
6,131 to 133 °C,O=S(=O)(NCCCCOc1ccc(-c2ccncn2)cc1)c1ccc(Br)cc1
7,135 to 140 °C,CC(C)[C@H](NC(=O)[C@@H]1CCCN1C(=O)[C@@H](NC(=O)Cn1ccc(=O)n(CC(=O)O)c1=O)C(C)C)C(=O)c1nc2ccccc2o1
8,114 to 116 °C,CCCC(=O)c1cnc2c(OC)cccc2c1Cl
9,66 to 68 °C,CCCCc1c(Cl)nc(N=CN(C)C)nc1Cl
10,91 to 93 °C,COc1ccc(-n2nc(CCCNO)cc2-c2ccc(Cl)cc2)cc1
11,195 to 197 °C,Cn1nc(S(=O)(=O)c2ccccc2)c2cc(N3CCN(Cc4ccccc4)CC3)ccc21
12,182 to 184 °C,C[C@H](O)Cn1c(=O)c(Oc2ccc(F)cc2F)cc2cnc(NC(C)(C)CO)nc21
13,213 to 215 °C,CC(=O)C1=C(O)C(=C(C)Nc2ccc(OC(N)=O)cc2)C(=O)OC1=O
14,102 to 106 °C,Cc1ccc(C=Nc2ccc(Cl)cc2Cl)c(C)c1
15,190 to 191 °C,CSc1nn2c(NCCN(C)C)cc(C)nc2c1S(=O)(=O)c1ccccc1
16,95 °C,CC(CN1CCCC1)N1c2ccccc2Sc2ccc(C(=O)NCc3ccccc3[N+](=O)[O-])cc21 (racemic)
17,247 to 249 °C,c1ccc(Nc2nsc3ccccc23)nc1
18,127 to 129 °C,CN1CCC(O)(c2ccccc2F)CC1
19,163 to 165 °C,Cc1oc(-c2ccccc2)nc1CNCc1ccc(C[C@@H](C(=O)O)n2cccc2)cc1
20,113 to 114 °C,Fc1cccc(F)c1-c1ccncc1
21,192 °C,CCOc1cc2c(cc1S(N)(=O)=O)C(CNC(=O)N1CC(C)=C(CC)C1=O)CCO2 (stereo not drawn)
22,110 to 111 °C,CC(=O)NCC1CN(Cc2ccccc2)CCO1 (stereo not drawn)
23,237 to 238 °C,COc1nc(C)c(CC2CC2)c(C(O)c2cc(Cl)cc(C#N)c2)c1C(C)C (stereo not drawn)
24,153 to 154 °C,CCCCCCCCCCCCCCCCCCOCC(O)Cn1ccc(N)nc1=O (stereo not drawn)
25,190 to 191 °C,Cc1cc(O)cc(C)c1N

row,melting point,SMILES
1,129 to 131 °C,CC(C)(OCc1nn(Cc2ccccc2)c2ccc([N+](=O)[O-])cc12)C(=O)O
2,204 °C,CN(CCc1nc(-c2cc(C(C)(C)C)c(O)c(C(C)(C)C)c2)cs1)C(=O)OC(C)(C)C
3,204 to 205 °C,O=C(Nc1c[nH]nc1C(=O)NCc1ccccc1)c1ccccn1
4,100 to 102 °C,COc1ccc2c(c1)Sc1ccc(Cl)cc1C(O)C2 (stereo not drawn)
5,186 to 187 °C,CCC(C)c1cc2c(cc1O)CC[C@@H]1[C@@H]2CC[C@]2(C)C(=O)CC[C@@H]12 (stereo partly drawn)
6,81 to 84 °C,CCNC(=O)n1nc(Oc2ccc(F)cc2[N+](=O)[O-])cc1C
7,192 °C,CCC(=O)N[C@H]1CC[C@H](CCN2CCN(c3nccc4c3CCO4)CC2)CC1
8,102 to 103 °C,NS(=O)(=O)c1cc2c(s1)CCCC2O (stereo not drawn)
9,226 to 228 °C,COc1cccc2c1OCC(/C=C/C=C/C=C/C(=O)O)=C2
10,164 to 166 °C,CC(C)(C)c1ccc(C(=O)NCc2ccc3c(c2)C(=O)N(C2CCC(=O)NC2=O)C3=O)cc1 (stereo not drawn)
11,88 to 89.5 °C,COc1ccc(Oc2ccc(OCc3ccccc3)cc2)c([N+](=O)[O-])c1
12,55 to 57 °C,OC1CCCCC1c1ccccc1 (stereo not drawn)
13,195 to 196 °C,Cc1c(C)c2c(c(C)c1O)CC[C@](C)(C(=O)N[C@H]1CCOC1=O)O2
14,267 to 278 °C,COc1ccccc1-c1c2nn(-c3ccc(Cl)cc3)c(=O)c-2c[nH]c1C
15,218 to 220 °C,CC(=O)c1ccc(-n2c(-c3sc(Nc4ccc(Cl)cc4)nc3-c3ccccc3)nc3ccccc3c2=O)cc1
16,189 to 191 °C,O=S1(=O)N=CN(C2CCCCC2)c2cc(Cl)ccc21
17,244 to 246 °C,COc1cccc(C(=O)NCc2cccc3c2CN(C2CCC(=O)NC2=O)C3=O)c1 (stereo not drawn)
18,137 to 139 °C,O=C(O)Cn1c(Cc2ccccc2)ccc1-c1ccccc1
19,162 to 163 °C,COC(=O)CC[C@H](NC(=O)CCC#Cc1cnc2nc(NC(=O)C(C)(C)C)nc(O)c2c1)C(=O)OC
20,132 to 135 °C,CN(CCO)c1ccnc(CSc2nc3ccccc3[nH]2)c1Cl
21,185 to 187 °C,O=C(CN1CCC(Cc2ccc(F)cc2)CC1)Nc1ccc2c(c1)NC(=O)CO2
22,181 to 183 °C,CCN1C(=O)C(C)(C)CCc2c1ccc(Nc1ncc(Cl)c(Nc3ccc(N4CCOCC4)cc3OC)n1)c2OC
23,245 to 246 °C,CC(=O)Nc1ccc(-c2nn(C(C)=O)c3c2Cc2ccccc2-3)cc1
24,99 to 102 °C,COC(=O)c1ccc(CBr)c(N(C)C(=O)OC)c1
25,136 to 138 °C,Cc1cc(NCCOC(=O)c2ccccc2)c2[nH]ncc2n1

row,melting point,SMILES
1,213 to 216 °C,CCCc1nc2c(N)nc3cc(OCCN(CCOc4ccc5c(c4)nc(N)c4nc(CCC)sc45)C(N)=O)ccc3c2s1
2,77 to 81 °C,CCC[C@H]1C=C(C(=O)OCC)OC(=O)[C@H]1Cc1ccccc1
3,213 to 214 °C,CCCCc1n[nH]c(C(=O)O)c1Cc1ccc(-c2ccccc2-c2nc(=O)o[nH]2)cc1
4,208 to 210 °C,Clc1cccc(/C=C/C2=CCN(Cc3c[nH]c4ncccc34)CC2)c1
5,199 to 200 °C,Oc1cccc(-c2ocnc2-c2onc(-c3ccccc3)c2-c2ccccc2)c1
6,198 to 200 °C,CC(=O)NCc1ccc(CN2CCN(c3ccc(N)cc3)CC2)cc1
7,176 to 177 °C,O=S(=O)(N[C@H](Cc1ccc(C(F)(F)F)cc1)[C@@H](O)c1ccc(F)cc1)c1cccc2ccccc12 (racemic)
8,242 to 245 °C,COc1cc2nc(N)nc(-c3cccc(Cl)c3)c2cc1OC
9,140 °C,CNC(=S)NS(=O)(=O)c1cc(CCNC(=O)/C=C/c2cccs2)ccc1OCCOC
10,131 to 133 °C,CN(CC(=O)NO)C(=O)[C@H]1CCCC[C@H]1C(=O)O (relative stereo)
11,139 to 140 °C,O=C(O)CCc1cn(Cc2ccc(OCc3coc(-c4ccccc4)n3)cc2)cc1-c1ccccc1
12,227 to 228 °C,O=C(O)CCCNC(=O)c1n[nH]cc1NC(=O)c1ccccn1
13,157 to 158 °C,CC(C)c1ccc(C(=O)c2c(N)sc3c2CCN(Cc2ccccc2)C3)cc1
14,117 to 119 °C,O=C(NC(Cc1c[nH]c2ccccc12)C(=O)O)C(S)Cc1ccccc1 (stereo not drawn)
15,239 to 240 °C,CC(C)(C)OC(=O)N1C[C@@H](c2c[nH]c3ccccc23)[C@H](c2cn3c4c(cccc24)CCC3)C1
16,162 to 163 °C,Fc1ccc2ncc3ncn(-c4ccccc4F)c3c2c1
17,232 to 234 °C,OC1CCCc2ccc(-c3ccc4nc(-c5ccc(Cl)cc5)cn4c3)cc21 (stereo not drawn)
18,155 to 157 °C,Cn1cc(C(=O)c2ccc(F)cc2)cc1C(=O)c1ccncc1
19,243 to 245 °C,CCCCc1ccc(NC(=O)Nc2ccc(S(N)(=O)=O)cc2)cc1
20,93 to 95 °C,CN1C(=O)C[C@@H](c2ccccc2)[C@H]1CO
21,183 to 186 °C,O=c1c(-c2ccccc2)c(CNc2ncnc3[nH]cnc23)oc2ccc(F)cc12
22,90 to 91.5 °C,CCOC(=O)c1cc([N+](=O)[O-])c(C)nc1C(=O)OCC

row,SMILES,melting point
1,CC(C)C(=O)NC1CCc2c(c3cc(Br)ccc3n2Cc2cccc(F)c2)C1 (stereo not drawn),177 to 179 °C
